PubChem BioAssay AID248 (DTP/NCI, 2004)
“And” between values parts separate entries of the source, which are not always exact repeats. Equal values may be shown once. Inconclusive results and toxic doses are left out.

System: L1210 leukemia ip in BDF1 mice, survival T/C
Assay: NCI In Vivo Anticancer Drug Screen. Data for tumor model L1210 Leukemia (intraperitoneal) in B6D2F1 (BDF1) mice
Details: endpoint: mean survival time, higher = longer survival
Method in brief: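 Tumor cells were implanted, animals were treated, and survival was followed. The result divides the treated measurement by the vehicle-control measurement.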

[1] = dose: 100.0 mg/kg/injection, schedule: Q01DX001 (ip), vehicle: saline
[2] = dose: 200.0 mg/kg/injection, schedule: Q01DX001 (ip), vehicle: saline
[3] = dose: 400.0 mg/kg/injection, schedule: Q01DX001 (ip), vehicle: saline
[4] = dose: 100.0 mg/kg/injection, schedule: Q01DX009 (ip), vehicle: Klucel (hydroxypropylcellulose) (HPC)
[5] = dose: 25.0 mg/kg/injection, schedule: Q04DX002 (ip), vehicle: Klucel (hydroxypropylcellulose) (HPC)
[6] = dose: 50.0 mg/kg/injection, schedule: Q04DX002 (ip), vehicle: Klucel (hydroxypropylcellulose) (HPC)
[7] = dose: 100.0 mg/kg/injection, schedule: Q04DX002 (ip), vehicle: Klucel (hydroxypropylcellulose) (HPC)
[8] = dose: 200.0 mg/kg/injection, schedule: Q04DX002 (ip), vehicle: Klucel (hydroxypropylcellulose) (HPC)
[9] = dose: 400.0 mg/kg/injection, schedule: Q04DX002 (ip), vehicle: Klucel (hydroxypropylcellulose) (HPC)
[10] = dose: 100.0 mg/kg/injection, schedule: Q01DX009 (ip), vehicle: saline with Tween-80
[11] = dose: 100.0 mg/kg/injection, schedule: Q04DX003 (ip), vehicle: saline with Tween-80
[12] = dose: 25.0 mg/kg/injection, schedule: Q01DX009 (ip), vehicle: saline
[13] = dose: 50.0 mg/kg/injection, schedule: Q01DX009 (ip), vehicle: saline
[14] = dose: 100.0 mg/kg/injection, schedule: Q04DX003 (ip), vehicle: Klucel (hydroxypropylcellulose) (HPC)

O=C(NCC1CC1)Nc1cccc2ccccc12
T/C (dose: 100.0 mg/kg/injection, schedule: Q01DX009 (ip), vehicle: other): 98 % of control
T/C (dose: 200.0 mg/kg/injection, schedule: Q01DX009 (ip), vehicle: other): 89 % of control
T/C (dose: 400.0 mg/kg/injection, schedule: Q01DX009 (ip), vehicle: other): 92 % of control

O=[N+]([O-])c1ccc(SCN(CSc2ccc([N+](=O)[O-])cc2)Cc2ccccc2)cc1
T/C [1]: 96 % of control
T/C [2]: 102 % of control
T/C [3]: 90 % of control

CS(=O)(=O)OCCN(CCOS(C)(=O)=O)c1ccc(C=Nc2ccc(C(=O)O)c(O)c2)cc1
T/C (dose: 6.25 mg/kg/injection, schedule: Q04DX003 (ip), vehicle: saline with Tween-80): 117 % of control
T/C (dose: 12.0 mg/kg/injection, schedule: Q01DX009 (ip), vehicle: saline with Tween-80): 168 % of control
T/C (dose: 16.5 mg/kg/injection, schedule: Q04DX003 (ip), vehicle: saline with Tween-80): 112 % of control
T/C (dose: 18.0 mg/kg/injection, schedule: Q01DX009 (ip), vehicle: saline with Tween-80): 170 % of control
T/C (dose: 25.0 mg/kg/injection, schedule: Q04DX003 (ip), vehicle: saline with Tween-80): 121 % of control
T/C (dose: 37.5 mg/kg/injection, schedule: Q04DX003 (ip), vehicle: saline with Tween-80): 113 % of control

O=C(O)c1cc(Br)c(C(=O)O)cc1Br
T/C [1]: 100 % of control
T/C [2]: 102 % of control
T/C [3]: 96 % of control

CCCCCCCCN(C)/N=N/c1nc[nH]c1C(N)=O
T/C [4]: 113 % of control

COc1cc2c(cc1OC)C13CCN4CC5=CCOC6CC(=O)N2C1C6C5CC43 (stereo unspecified)
T/C (dose: 9.5 mg/kg/injection, schedule: Q01DX001 (ip), vehicle: other): 103 % of control
T/C (dose: 19.0 mg/kg/injection, schedule: Q01DX001 (ip), vehicle: other): 103 % of control
T/C (dose: 25.0 mg/kg/injection, schedule: Q01DX015 (ip), vehicle: saline): 101 % of control
T/C (dose: 38.0 mg/kg/injection, schedule: Q01DX001 (ip), vehicle: other): 97 % of control
T/C (dose: 50.0 mg/kg/injection, schedule: Q01DX015 (ip), vehicle: saline): 100 % of control
T/C (dose: 100.0 mg/kg/injection, schedule: Q01DX015 (ip), vehicle: saline): 91 % of control

COC1OC(COS(=O)(=O)c2ccc(C)cc2)C(OC(=O)c2ccccc2)C(OC(=O)c2ccccc2)C1OS(=O)(=O)c1ccc(C)cc1 (stereo unspecified)
T/C [5]: 88 % of control
T/C [6]: 95 % of control
T/C [7]: 88 % of control
T/C [8]: 109 % of control and 88 % of control
T/C [9]: 109 % of control

O=c1[nH]c(Cl)nc2c(Cl)c(C(Cl)(Cl)Cl)nn12
T/C [10]: 95 % of control
T/C [11]: 101 % of control
T/C (dose: 200.0 mg/kg/injection, schedule: Q01DX009 (ip), vehicle: saline with Tween-80): 93 % of control
T/C (dose: 200.0 mg/kg/injection, schedule: Q04DX003 (ip), vehicle: saline with Tween-80): 94 % of control
T/C (dose: 400.0 mg/kg/injection, schedule: Q04DX003 (ip), vehicle: saline with Tween-80): 92 % of control

CCCCC(CCN1CCCC1)(CNC(=O)CN(CC)CC)c1cccc2ccccc12 (stereo unspecified)
T/C [12]: 94 % of control
T/C [5]: 103 % of control
T/C [13]: 102 % of control
T/C [6]: 100 % of control
T/C [7]: 107 % of control

c1ccc2c(C3OCC4(CC4)CO3)cccc2c1
T/C (dose: 25.0 mg/kg/injection, schedule: Q01DX001 (ip), vehicle: Klucel (hydroxypropylcellulose) (HPC)): 100 % of control
T/C (dose: 50.0 mg/kg/injection, schedule: Q01DX001 (ip), vehicle: Klucel (hydroxypropylcellulose) (HPC)): 96 % of control
T/C (dose: 100.0 mg/kg/injection, schedule: Q01DX001 (ip), vehicle: Klucel (hydroxypropylcellulose) (HPC)): 105 % of control

CS(=O)(=O)OCCN(CCOS(C)(=O)=O)c1ccc(C=Nc2cc(Br)c(O)c(Br)c2)cc1
T/C (dose: 20.0 mg/kg/injection, schedule: Q04DX003 (ip), vehicle: Klucel (hydroxypropylcellulose) (HPC)): 120 % of control
T/C (dose: 40.0 mg/kg/injection, schedule: Q04DX003 (ip), vehicle: Klucel (hydroxypropylcellulose) (HPC)): 104 % of control
T/C (dose: 80.0 mg/kg/injection, schedule: Q04DX003 (ip), vehicle: Klucel (hydroxypropylcellulose) (HPC)): 96 % of control
T/C [14]: 113 % of control

O=S(=O)(O)CCCBr
T/C (dose: 100.0 mg/kg/injection, schedule: Q04DX003 (ip), vehicle: acetone): 96 % of control
T/C (dose: 200.0 mg/kg/injection, schedule: Q04DX003 (ip), vehicle: acetone): 95 % of control
T/C (dose: 400.0 mg/kg/injection, schedule: Q04DX003 (ip), vehicle: acetone): 87 % of control

Cc1nccn1-c1ccc(Cl)cc1N=Cc1ccc(N(CCCl)CCCl)cc1Cl
T/C [7]: 95 % of control
T/C [8]: 95 % of control
T/C [9]: 106 % of control

ClCC[n+]1ccc(-c2cc[n+](CCCl)cc2)cc1
T/C (dose: 156.0 micrograms/kg/injection, schedule: Q01DX Z (ip), vehicle: saline): 110 % of control
T/C (dose: 313.0 micrograms/kg/injection, schedule: Q01DX Z (ip), vehicle: saline): 100 % of control
T/C (dose: 625.0 micrograms/kg/injection, schedule: Q01DX Z (ip), vehicle: saline): 98 % of control
T/C (dose: 1250.0 micrograms/kg/injection, schedule: Q01DX Z (ip), vehicle: saline): 98 % of control

N#CCC(C#N)N1CCOCC1 (stereo unspecified)
T/C (dose: 25.0 mg/kg/injection, schedule: Q01DX009 (ip), vehicle: saline with Tween-80): 92 % of control
T/C (dose: 50.0 mg/kg/injection, schedule: Q01DX009 (ip), vehicle: saline with Tween-80): 104 % of control
T/C [10]: 93 % of control
T/C [11]: 97 % of control

CC(=O)Nc1ccc(S(=O)(=O)NN)cc1
T/C (dose: 50.0 mg/kg/injection, schedule: Q01DX001 (ip), vehicle: carboxymethylcellulose (CMC)): 106 % of control
T/C (dose: 100.0 mg/kg/injection, schedule: Q01DX001 (ip), vehicle: carboxymethylcellulose (CMC)): 103 % of control
T/C (dose: 200.0 mg/kg/injection, schedule: Q01DX001 (ip), vehicle: carboxymethylcellulose (CMC)): 92 % of control
T/C (dose: 400.0 mg/kg/injection, schedule: Q01DX001 (ip), vehicle: carboxymethylcellulose (CMC)): 92 % of control

COC1(c2ccccc2)ON=C(c2ccccc2)C=C1c1ccccc1 (stereo unspecified)
T/C (dose: 100.0 mg/kg/injection, schedule: Q04DX003 (ip), vehicle: saline): 93 % of control
T/C (dose: 200.0 mg/kg/injection, schedule: Q04DX003 (ip), vehicle: saline): 91 % of control
T/C (dose: 400.0 mg/kg/injection, schedule: Q04DX003 (ip), vehicle: saline): 99 % of control

NC(=O)CC[n+]1ccccc1
T/C (dose: 12.5 mg/kg/injection, schedule: Q01DX009 (ip), vehicle: saline): 97 % of control
T/C [12]: 93 % of control
T/C [13]: 96 % of control
T/C (dose: 50.0 mg/kg/injection, schedule: Q04DX003 (ip), vehicle: saline): 105 % of control

CCc1cc2oc(C)c(C)c2c(N=Nc2ccc(Cl)cc2)c1O
T/C [7]: 99 % of control
T/C [8]: 96 % of control
T/C [9]: 99 % of control

C[N+](C)(C)CCCC1C2CCC(C2)C1C[N+](C)(C)C (stereo unspecified)
T/C (dose: 12.0 mg/kg/injection, schedule: Q01DX009 (ip), vehicle: saline): 103 % of control
T/C (dose: 12.5 mg/kg/injection, schedule: Q04DX003 (ip), vehicle: saline): 106 % of control
T/C [12]: 104 % of control
T/C (dose: 25.0 mg/kg/injection, schedule: Q04DX003 (ip), vehicle: saline): 98 % of control

CC(=Nc1ccc(Br)cc1)c1c(O)cc(C)oc1=O
T/C [4]: 100 % of control
T/C (dose: 200.0 mg/kg/injection, schedule: Q01DX009 (ip), vehicle: Klucel (hydroxypropylcellulose) (HPC)): 91 % of control
T/C (dose: 400.0 mg/kg/injection, schedule: Q01DX009 (ip), vehicle: Klucel (hydroxypropylcellulose) (HPC)): 117 % of control

CN1CCN(c2ccc3nnc(Cl)n3n2)CC1
T/C (dose: 50.0 mg/kg/injection, schedule: Q04DX003 (ip), vehicle: saline with Tween-80): 97 % of control

O=C(O)c1cc(C(Cl)(Cl)Cl)ccc1C(Cl)(Cl)Cl
T/C (dose: 50.0 mg/kg/injection, schedule: Q01DX009 (ip), vehicle: saline sonified): 95 % of control
T/C (dose: 50.0 mg/kg/injection, schedule: Q04DX003 (ip), vehicle: Klucel (hydroxypropylcellulose) (HPC)): 97 % of control
T/C (dose: 100.0 mg/kg/injection, schedule: Q01DX009 (ip), vehicle: saline sonified): 101 % of control
T/C [14]: 96 % of control
T/C (dose: 200.0 mg/kg/injection, schedule: Q01DX009 (ip), vehicle: saline sonified): 98 % of control
T/C (dose: 200.0 mg/kg/injection, schedule: Q04DX003 (ip), vehicle: Klucel (hydroxypropylcellulose) (HPC)): 103 % of control
